Reference: patent US20230120597A1, “CO-AGONISTS AT GLP-1 AND GIP RECEPTORS SUITABLE FOR ORAL DELIVERY” (Novo Nordisk A/S, priority 2020, published 2023)
Like-named read-outs stand apart in the source and are kept apart here. Starred links: 1 amine or outer side, 2 acyl side, 3 side chain; linkers in the order of their positions; H or OH if unused. Non-standard residues stand in square brackets, D forms with d. Residues, ends and D or L forms follow the SMILES beside them. Groups on a side chain read outwards from the residue. *: point of attachment. C18 diacid = O=C(O)CCCCCCCCCCCCCCCCC(=O)*; γGlu = O=C(O)[C@H](CCC(=O)[*:2])N[*:1]; εLys = N[C@@H](CCCCN[*:1])C(=O)[*:2]; AEEA = NCCOCCOCC(=O)O; Aib = CC(C)(N)C(=O)O

Experiments:
[1] = target: T1, human GLP-1 receptor (Homo sapiens, UniProt P43220); test: In vitro functional potency, CRE luciferase reporter gene assay, whole BHK cells expressing hGLP-1R; assay type: cell-based; conditions: BHK CRE luc2P hGLP-1R cells
T1 construct: expressed in transfected cells; host or cells: BHK (parent line BHKTS13), clone BHK CRE luc2P hGLP-1R
Protocol: (§1) The in vitro functional potency is the measure of target receptor activation in a whole cell assay.
(§2) In vitro functional potency was determined by measuring the response of the target receptor in a reporter gene assay in individual cell lines. […] When the respective receptor is activated, it results in the production of cAMP, which in turn results in expression of the luciferase protein. When assay incubation is completed, luciferase substrate (luciferin) is added resulting in the enzymatic conversion of luciferin to oxyluciferin and producing bioluminescence. The luminescence is measured as the readout for the assay.
(§3) The cells lines used in these assays were BHK cells with BHKTS13 as a parent cell line. The cell lines were derived from a clone containing the CRE luciferase element and were established by further transfection with the respective human receptor to obtain the relevant cell line: BHK CRE luc2P hGLP-1R or BHK CRE luc2P hGIPR. The cells were cultured at 37° C. with 5% CO2 in Cell Culture Medium. They were aliquoted and stored in liquid nitrogen. The cells were kept in continuous culture and were seeded out the day before each assay.
(§4) GLP-1R Cell Culture Medium consisted of DMEM medium with 10% FBS, 500 μg/mL G418, and 300 μg/mL hygromycin. GIPR Cell Culture Medium consisted of DMEM medium with 10% FBS, 400 μg/mL G418, and 300 μg/mL hygromycin. Assay Buffer consisted of DMEM w/o phenol red, 10 mM Hepes, 1× Glutamax. 1% ovalbumin, and 0.1% Pluronic F-68 with the addition of HSA at twice the final assay concentration.
(§5) Procedure • 1) Cells were plated at 5000 cells/well and incubated overnight in the assay plate. • 2) Cells were washed once in DPBS. • 3) Stocks of the test compounds and reference compounds in concentrations ranging from […] were diluted 1:150 in Assay Buffer. Compounds were then diluted 1:10 in column 1 of a 96 deep well dilution plate and then carried across the row creating a 3.5 fold, 12 point dilution curve. • 4) Assay Buffer (50 μl aliquot) with or without HSA was added to each well in the assay plate. • 5) A 50 μl aliquot of compound or blank was transferred from the dilution plate to the assay plate containing the Assay Buffer with or without HSA. • 6) The assay plate was incubated for 3 h in a 5% CO2 incubator at 37° C. • 7) The cells were washed once with DPBS. • 8) A 100 μl aliquot of DPBS was added to each well of the assay plate. • 9) A 100 μl aliquot of steadylite plus reagent (light sensitive) was added to each well of the assay plate. • 10) Each assay plate was covered with aluminum foil to protect it from light and shaken at 250 RPM for 30 min at room temperature. • 11) Each assay plate was read in a microtiter plate reader.
(§6) The data from the microtiter plate reader was first regressed in an Excel in order to calculate the x-axis, log scale concentrations based on the individual test compound's stock concentration and the dilutions of the assay. […] The software performs a non-linear regression (log(agonist) vs response). A minimum of two replicates was measured for each sample. The reported values are averages of the replicates.

[2] = target: T2, human GIP receptor (Homo sapiens, UniProt P48546); test: In vitro functional potency, CRE luciferase reporter gene assay, whole BHK cells expressing hGIPR; assay type: cell-based; conditions: BHK CRE luc2P hGIPR cells
T2 construct: expressed in transfected cells; host or cells: BHK (parent line BHKTS13), clone BHK CRE luc2P hGIPR
T2 sequence (P48546 22-466): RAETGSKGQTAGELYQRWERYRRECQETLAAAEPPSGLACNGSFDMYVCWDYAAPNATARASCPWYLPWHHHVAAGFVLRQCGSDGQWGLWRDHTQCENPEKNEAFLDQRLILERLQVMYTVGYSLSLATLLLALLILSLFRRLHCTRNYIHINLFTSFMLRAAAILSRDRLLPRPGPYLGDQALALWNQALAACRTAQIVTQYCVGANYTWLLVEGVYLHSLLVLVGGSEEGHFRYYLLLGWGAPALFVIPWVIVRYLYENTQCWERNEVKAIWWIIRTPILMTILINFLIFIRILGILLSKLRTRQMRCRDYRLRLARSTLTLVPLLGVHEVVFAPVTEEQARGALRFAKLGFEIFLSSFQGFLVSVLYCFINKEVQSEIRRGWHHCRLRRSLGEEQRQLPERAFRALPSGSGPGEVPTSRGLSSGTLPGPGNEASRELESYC
Protocol: as §1, §2, §3, §4, §5, §6

[3] = Pharmacokinetic study in dogs, oral dosing of tablet compositions with SNAC; assay type: in vivo, Beagle dogs; conditions: dog, in vivo, po; for Tmax / half-life: male, beagle; for half-life: t1/2
Outline: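 The tablets held 3-4 mg compound plus 100-300 mg SNAC and were given to fasted male beagles (6-8 per group); non-compartmental PK per animal.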

[4] = 0% HSA, read-out: hGLP-1R, CRE Luc 0% HSA EC50
[5] = hGLP-1R, CRE Luc 1% HSA EC50, 1% HSA
[6] = 0% HSA, read-out: hGIPR, CRE Luc 0% HSA EC50
[7] = hGIPR, CRE Luc 1% HSA EC50, 1% HSA

T1 sequence (P43220 24-463): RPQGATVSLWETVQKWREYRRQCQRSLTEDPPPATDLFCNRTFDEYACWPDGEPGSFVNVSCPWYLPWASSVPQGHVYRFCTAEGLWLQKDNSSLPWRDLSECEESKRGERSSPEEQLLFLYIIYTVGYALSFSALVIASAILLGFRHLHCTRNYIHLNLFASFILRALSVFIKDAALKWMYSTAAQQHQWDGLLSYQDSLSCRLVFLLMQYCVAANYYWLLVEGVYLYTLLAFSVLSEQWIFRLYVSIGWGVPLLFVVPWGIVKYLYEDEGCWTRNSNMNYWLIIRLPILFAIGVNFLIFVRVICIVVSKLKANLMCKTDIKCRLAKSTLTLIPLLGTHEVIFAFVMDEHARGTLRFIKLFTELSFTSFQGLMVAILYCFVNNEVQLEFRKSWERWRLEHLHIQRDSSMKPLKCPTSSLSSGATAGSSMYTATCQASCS

Structure (SMILES)	EC50 [1, 4] [pM]	EC50 [1, 5] [pM]	EC50 [2, 6] [pM]	EC50 [2, 7] [pM]	AUC/Dose [3] [kg·h/L]	Tmax [3] [h]	half-life [3] [h]
CC[C@H](C)[C@H](NC(=O)[C@H](Cc1ccccc1)NC(=O)[C@H](CCC(=O)O)NC(=O)[C@H](CCCNC(=N)N)NC(=O)[C@H](C)NC(=O)[C@H](C)NC(=O)[C@H](CCC(N)=O)NC(=O)[C@H](CCCCNC(=O)[C@@H](N)CCCCNC(=O)[C@@H](N)CCCCNC(=O)CC[C@H](NC(=O)CCCCCCCCCCCCCCCCC(=O)O)C(=O)O)NC(=O)[C@H](CCC(=O)O)NC(=O)[C@H](CC(C)C)NC(=O)[C@H](Cc1ccc(O)cc1)NC(=O)[C@@H](NC(=O)[C@H](CO)NC(=O)[C@H](Cc1ccc(O)cc1)NC(=O)[C@H](CC(=O)O)NC(=O)[C@H](CO)NC(=O)[C@@H](NC(=O)[C@H](Cc1ccccc1)NC(=O)[C@@H](NC(=O)CNC(=O)[C@H](CCC(=O)O)NC(=O)C(C)(C)NC(=O)[C@@H](N)Cc1ccc(O)cc1)[C@@H](C)O)[C@@H](C)O)[C@@H](C)CC)C(=O)N[C@@H](CCC(=O)O)C(=O)N[C@@H](Cc1c[nH]c2ccccc12)C(=O)N[C@@H](CC(C)C)C(=O)N[C@@H](CC(C)C)C(=O)N[C@@H](C)C(=O)NCC(=O)NCC(=O)N1CCC[C@H]1C(=O)N[C@@H](CO)C(=O)N[C@@H](CO)C(=O)NCC(=O)N[C@@H](C)C(=O)N1CCC[C@H]1C(=O)N1CCC[C@H]1C(=O)N1CCC[C@H]1C(=O)N[C@@H](CO)C(=O)O [Compound No. 9] (H-Y[Aib]EGTFTSDYSIYLEK([εLys-εLys-γGlu-C18 diacid])QAAREFIEWLLAGGPSSGAPPPS-OH)	3.8	279	[…]	[…]	[…]	2	[…]
CC[C@H](C)[C@H](NC(=O)[C@H](Cc1ccccc1)NC(=O)[C@H](CCC(=O)O)NC(=O)[C@H](CCCNC(=N)N)NC(=O)[C@H](C)NC(=O)[C@H](C)NC(=O)[C@H](CCC(N)=O)NC(=O)[C@H](CCCCNC(=O)COCCOCCNC(=O)COCCOCCNC(=O)CC[C@H](NC(=O)CCCCCCCCCCCCCCCCC(=O)O)C(=O)O)NC(=O)[C@H](CCC(=O)O)NC(=O)[C@H](CC(C)C)NC(=O)[C@H](Cc1ccc(O)cc1)NC(=O)[C@@H](NC(=O)[C@H](CO)NC(=O)[C@H](Cc1ccc(O)cc1)NC(=O)[C@H](CC(=O)O)NC(=O)[C@H](CO)NC(=O)[C@@H](NC(=O)[C@H](Cc1ccccc1)NC(=O)[C@@H](NC(=O)CNC(=O)[C@H](CCC(=O)O)NC(=O)C(C)(C)NC(=O)[C@@H](N)Cc1ccc(O)cc1)[C@@H](C)O)[C@@H](C)O)[C@@H](C)CC)C(=O)N[C@@H](CCC(=O)O)C(=O)N[C@@H](Cc1c[nH]c2ccccc12)C(=O)N[C@@H](CC(C)C)C(=O)N[C@@H](CC(C)C)C(=O)N[C@@H](C)C(=O)NCC(=O)NCC(=O)N1CCC[C@H]1C(=O)N[C@@H](CO)C(=O)N[C@@H](CO)C(=O)NCC(=O)N[C@@H](C)C(=O)N1CCC[C@H]1C(=O)N1CCC[C@H]1C(=O)N1CCC[C@H]1C(=O)N[C@@H](CO)C(=O)O [Compound No. 10] (H-Y[Aib]EGTFTSDYSIYLEK([AEEA-AEEA-γGlu-C18 diacid])QAAREFIEWLLAGGPSSGAPPPS-OH)	3.9	940	11.3	1750	8.4	1	36
CC[C@H](C)[C@H](NC(=O)[C@H](Cc1ccccc1)NC(=O)[C@H](CCC(=O)O)NC(=O)[C@H](CCCNC(=N)N)NC(=O)[C@H](C)NC(=O)[C@H](C)NC(=O)[C@H](CCC(N)=O)NC(=O)[C@H](CCCCNC(=O)[C@@H](N)CCCCNC(=O)[C@@H](N)CCCCNC(=O)CC[C@H](NC(=O)CCCCCCCCCCCCCCCCC(=O)O)C(=O)O)NC(=O)[C@H](CCC(=O)O)NC(=O)[C@H](CC(C)C)NC(=O)[C@H](Cc1ccc(O)cc1)NC(=O)[C@@H](NC(=O)[C@H](CO)NC(=O)[C@H](Cc1ccc(O)cc1)NC(=O)[C@H](CC(=O)O)NC(=O)[C@H](CO)NC(=O)[C@@H](NC(=O)[C@H](Cc1ccccc1)NC(=O)[C@@H](NC(=O)CNC(=O)[C@H](CCC(=O)O)NC(=O)C(C)(C)NC(=O)[C@@H](N)Cc1ccc(O)cc1)[C@@H](C)O)[C@@H](C)O)[C@@H](C)CC)C(=O)N[C@@H](CCC(=O)O)C(=O)N[C@@H](Cc1c[nH]c2ccccc12)C(=O)N[C@@H](CC(C)C)C(=O)N[C@@H](CC(C)C)C(=O)N[C@@H](CCCNC(=N)N)C(=O)NCC(=O)NCC(=O)N1CCC[C@H]1C(=O)N[C@@H](CO)C(=O)N[C@@H](CO)C(=O)NCC(=O)N[C@@H](C)C(=O)N1CCC[C@H]1C(=O)N1CCC[C@H]1C(=O)N1CCC[C@H]1C(=O)N[C@@H](CO)C(=O)O [Compound No. 12] (H-Y[Aib]EGTFTSDYSIYLEK([εLys-εLys-γGlu-C18 diacid])QAAREFIEWLLRGGPSSGAPPPS-OH; N-terminus assumed)	4	54.4	9	71.5	–	–	–
CC[C@H](C)[C@H](NC(=O)[C@H](CO)NC(=O)[C@H](Cc1ccc(O)cc1)NC(=O)[C@H](CC(=O)O)NC(=O)[C@H](CO)NC(=O)[C@@H](NC(=O)[C@H](Cc1ccccc1)NC(=O)[C@@H](NC(=O)CNC(=O)[C@H](CCC(=O)O)NC(=O)C(C)(C)NC(=O)[C@@H](N)Cc1ccc(O)cc1)[C@@H](C)O)[C@@H](C)O)C(=O)N[C@@H](C)C(=O)N[C@@H](CC(C)C)C(=O)N[C@@H](CCC(=O)O)C(=O)N[C@@H](CCCCNC(=O)[C@@H](N)CCCCNC(=O)[C@@H](N)CCCCNC(=O)CC[C@H](NC(=O)CCCCCCCCCCCCCCCCC(=O)O)C(=O)O)C(=O)N[C@@H](CCC(N)=O)C(=O)N[C@@H](C)C(=O)N[C@@H](C)C(=O)N[C@@H](CCCNC(=N)N)C(=O)N[C@@H](CCC(=O)O)C(=O)N[C@@H](Cc1ccccc1)C(=O)N[C@H](C(=O)N[C@@H](CC(N)=O)C(=O)N[C@@H](Cc1c[nH]c2ccccc12)C(=O)N[C@@H](CC(C)C)C(=O)N[C@@H](CC(C)C)C(=O)N[C@@H](C)C(=O)NCC(=O)NCC(=O)N1CCC[C@H]1C(=O)N[C@@H](CO)C(=O)N[C@@H](CO)C(=O)NCC(=O)N[C@@H](C)C(=O)N1CCC[C@H]1C(=O)N1CCC[C@H]1C(=O)N1CCC[C@H]1C(=O)N[C@@H](CO)C(=O)O)[C@@H](C)CC [Compound No. 14] (H-Y[Aib]EGTFTSDYSIALEK([εLys-εLys-γGlu-C18 diacid])QAAREFINWLLAGGPSSGAPPPS-OH)	5.4	306	11.6	580	–	–	–
